# Experiments:
# ErbB2 or EGFR = target: T1, ErbB2 or EGFR; assay: ErbB family substrate phosphorylation enzyme assay (HTRF), Method A or Method B; assay type: biochemical
# T1 construct: enzymes purified from a baculovirus expression system; Reagent production was conducted essentially as described in Brignola, P. S., et al, (2002) J. Biol. Chem. 277(2): 1576-1585
# Experimental: Compounds of the present invention were tested for EGFR, ErbB-2, and ErbB-4 protein tyrosine kinase inhibitory activity in substrate phosphorylation assays using enzymes purified from a baculovirus expression system. Reagent production was conducted essentially as described in Brignola, P. S., et al, (2002) J. Biol. Chem. 277(2): 1576-1585.
# The method measures the ability of the isolated enzyme to catalyse the transfer of the gamma-phosphate from ATP onto the tyrosine residue of a biotinylated synthetic peptide referenced “Peptide C” in Brignola, P. S., et al, (2002) J. Biol. Chem. 277(2):1576-1585. The extent of tyrosine phosphorylation was measured using an anti-phosphotyrosine antibody, and quantified by homogenous time-resolved fluorescence (HTRF).
# Reactions were performed in black 384-well polystyrene flat-bottom plates in a final volume of 20 ul. Assays were performed by adding 10 μl of each of the following solutions, substrate Mix and enzyme mix: The Substrate mix contained 100 mM 3-[N-morpholino]propanesulfonic acid (MOPS) (pH 7.5), 2 mM MnCl2, 20 μM ATP, 0.01% Tween-20, 0.1 mg/mL (BSA), 0.8 uM peptide substrate, and 1 mM dithiothreitol. The enzyme mix contained 100 mM MOPS (pH7.5); 0.01% Tween-20; 0.1 mg/mL BSA, and either 0.8 nM EGFR, 10 nM ErbB2, or 1 nM ErbB4
# During the course of these studies, two separate methods have been used to measure the potency of compounds. In Method A, the substrate mix was added to the compound plates first, then the reaction was started by adding the enzyme mix. In Method B, the enzyme mix was added to the compound plates and the plates were incubated at 20° C. for 1 hour. The reactions were then started by adding the substrate mix.
# After initiating the reaction with either method describe above, the reactions were allowed to proceed for 90 minutes at 20° C. The reactions were then terminated by the addition of 20 μl 100 mM EDTA to each well. 40 μl/well of HTRF detection mix were added to the assay plates. The final concentrations of the detection reagents were: 100 mM HEPES (pH7.5), 0.1 mg/mL BSA, 15 nM streptavidin-labeled allophycocyanin (PerkinElmer), and 1 nM europium-labeled anti-phosphotyrosine antibody (PerkinElmer). Assay plates were left unsealed and were counted in a Wallac Multilabel Counter 1420 (PerkinElmer).
# Compounds under analysis were dissolved in Me2SO to 1.0 mM and serially diluted 1 to 3 with Me2SO through twelve dilutions. 1 μl of each concentration was transferred to the corresponding well of an assay plate. This creates a final compound concentration range from 0.00027 to 47.6 μM.
# The data for dose responses were plotted as % Inhibition calculated with the data reduction formula 100*(1−(U1−C2)/(C1−C2)) versus concentration of compound where U is the unknown value, C1 is the average control value obtained for 4.76% DMSO, and C2 is the average control value obtained for 0.035 M EDTA. Data were fitted with a curve described by: y=((Vmax*x)/(K+x))+Y^2 where Vmax is the upper asymptote, Y2 is the Y intercept, and K is the IC50. The results for each compound were recorded as pIC50s, calculated as follows: pIC50=−Log 10(K)
# [1] = test system: BT474 and HN5 tumor cell lines; assay: Methylene blue growth inhibition assay (cellular Method A); assay type: cell-based, Human; details: Homo sapiens, BT-474, 72 h, 3 days, read-out: Activity (Method): growth inhibition IC50 class
# Experimental: Human breast (BT474) and head and neck (HN5) were cultured in low glucose DMEM (Life Technologies 12320-032) containing 10% fetal bovine serum (FBS). Human colon tumor cells (Colo205) were cultured in DMEM (Invitrogen, 10564) containing 10% FBS. The SV40 transformed human mammary epithelial cell line HB4a was transfected with either human H-ras cDNA (HB4a r4.2) or the human c-ErbB2 cDNA (HB4a c5.2). The HB4a clones were cultured in RPMI containing 10% FBS, insulin (5 g/mL), hydrocortisone (5 g/mL), supplemented with the selection agent hygromycin B (50 g/mL). All lines were grown in a humidified incubator at 37° C. in 95% air, 5% CO2. Cells were harvested using trypsin/EDTA, counted using a haemocytometer, and plated in 100 microliters of the appropriate media, at the following densities, in a 96-well tissue culture plate (Falcon 3075): BT474 10,000 cells/well, HN5 3,000 cells/well. The next day, compounds were diluted in DMEM containing […] gentamicin, at twice the final required concentration, from 10 mM stock solutions in DMSO. 100 microliters/well of these dilutions were added to the 100 microliters of media currently on the cell plates. Medium containing 0.6% DMSO was added to control wells. Compounds diluted in DMEM were added to all cell lines. The final concentration of DMSO in all wells was 0.3%. Cells were returned to the incubator (37° C., 10% CO2) for 3 days. Medium was then removed by aspiration. Cell biomass was estimated by staining cells with 90 microliters per well methylene blue (Sigma M9140, 0.5% in 1:1 ethanol:water), and incubation at rt for at least 30 minutes. Stain was removed, and the plates rinsed by immersion in deionized water and air-dried. To release stain from the cells 100 microliters of solubilization solution was added (1% N-lauroyl sarcosine, Sodium salt, Sigma L5125, in PBS), and plates were shaken gently for about 30 minutes. Optical density at 620 nm was measured on a microplate reader. Percent inhibition of cell growth was calculated relative to vehicle treated control wells. Concentration of compound that inhibits 50% of control cell growth (IC50) was interpolated using nonlinear regression (Levenberg-Marquardt) and the equation, y=Vmax*(1−(x/(K+x)))+Y2, where “K” was equal to the IC50. Method B: Celltiter Glo® Growth Inhibition Assays
# [2] = Method A: substrate mix added first, reaction started with enzyme mix
# [3] = Method B: enzyme mix pre-incubated with compound 1 hour at 20° C., started with substrate mix
IC50 [1],Structure (SMILES),Activity (Method): pIC50 class against ErbB2 or EGFR (ErbB2 or EGFR; [2]),Activity (Method): pIC50 class against ErbB2 or EGFR (ErbB2 or EGFR; [3])
< 100 nM,"N#Cc1cccc(Nc2nccc(-c3c(-c4cccc(NC(=O)c5c(F)cccc5F)c4)nn4ccccc34)n2)c1 [Example 30, N-[3-(3-{2-[(3-cyanophenyl)amino]-4-pyrimidinyl}pyrazolo[1,5-a]pyridin-2-yl)phenyl]-2,6-difluorobenzamide]",+++ (A) (at least one pIC50 measurement of greater than 7 against either ErbB2 or EGFR),
< 100 nM,"NS(=O)(=O)c1ccc(Nc2nccc(-c3c(-c4cccc(NC(=O)c5c(F)cccc5F)c4)nn4ccccc34)n2)cc1 [Example 32, N-{3-[3-(2-{[4-(aminosulfonyl)phenyl]amino}-4-pyrimidinyl)pyrazolo[1,5-a]pyridin-2-yl]phenyl}-2,6-difluorobenzamide]",,+++ (B) (at least one pIC50 measurement of greater than 7 against either ErbB2 or EGFR)
100 to 1000 nM,"O=C(Nc1cccc(-c2nn3ccccc3c2-c2ccnc(Nc3cccc(C(F)(F)F)c3)n2)c1)c1c(F)cccc1F [Example 33, 2,6-Difluoro-N-{3-[3-(2-{[3-(trifluoromethyl)phenyl]-amino}-4-pyrimidinyl)pyrazolo[1,5-a]pyridin-2-yl]phenyl}benzamide]",+++ (A) (at least one pIC50 measurement of greater than 7 against either ErbB2 or EGFR),
< 100 nM,"O=C(Nc1cccc(-c2nn3ccccc3c2-c2ccnc(Nc3ccccc3)n2)c1)c1c(F)cccc1F [Example 34, 2,6-Difluoro-N-(3-{3-[2-(phenylamino)-4-pyrimidinyl]pyrazolo[1,5-a]pyridin-2-yl}phenyl)benzamide]",,+++ (B) (at least one pIC50 measurement of greater than 7 against either ErbB2 or EGFR)
< 100 nM,"O=C(Nc1cccc(-c2nn3ccccc3c2-c2ccnc(Nc3cccc(-c4cnco4)c3)n2)c1)c1c(F)cccc1F [Example 35, 2,6-Difluoro-N-{3-[3-(2-{[3-(1,3-oxazol-5-yl)phenyl]amino}-4-pyrimidinyl)pyrazolo[1,5-a]pyridin-2-yl]phenyl}benzamide]",,+++ (B) (at least one pIC50 measurement of greater than 7 against either ErbB2 or EGFR)
< 100 nM,"CC(=O)Nc1cccc(Nc2nccc(-c3c(-c4cccc(NC(=O)c5c(F)cccc5F)c4)nn4ccccc34)n2)c1 [Example 36, N-{3-[3-(2-{[3-(Acetylamino)phenyl]amino}-4-pyrimidinyl)pyrazolo[1,5-a]pyridin-2-yl]phenyl}-2,6-difluorobenzamide]",+++ (A) (at least one pIC50 measurement of greater than 7 against either ErbB2 or EGFR),
< 100 nM,"O=C(Nc1cccc(-c2nn3ccccc3c2-c2ccnc(Nc3cccc(F)c3)n2)c1)c1c(F)cccc1Cl [Example 37, 2-Chloro-6-fluoro-N-[3-(3-{2-[(3-fluorophenyl)amino]-4-pyrimidinyl}pyrazolo[1,5-a]pyridin-2-yl)phenyl]benzamide]",,+++ (B) (at least one pIC50 measurement of greater than 7 against either ErbB2 or EGFR)
100 to 1000 nM,"Cc1noc(C)c1C(=O)Nc1cccc(-c2nn3ccccc3c2-c2ccnc(Nc3cccc(F)c3)n2)c1 [Example 38, N-[3-(3-{2-[(3-fluorophenyl)amino]-4-pyrimidinyl}-pyrazolo[1,5-a]pyridin-2-yl)phenyl]-3,5-dimethyl-4-isoxazolecarboxamide]",,+++ (B) (at least one pIC50 measurement of greater than 7 against either ErbB2 or EGFR)
100 to 1000 nM,"O=C(Nc1cccc(-c2nn3ccccc3c2-c2ccnc(Nc3cccc(F)c3)n2)c1)c1cc(F)ccc1F [Example 39, 2,5-Difluoro-N-[3-(3-{2-[(3-fluorophenyl)amino]-4-pyrimidinyl}pyrazolo[1,5-a]pyridin-2-yl)phenyl]benzamide]",,+++ (B) (at least one pIC50 measurement of greater than 7 against either ErbB2 or EGFR)
< 100 nM,"N#Cc1cccc(Nc2nccc(-c3c(-c4cccc(NC(=O)c5cc(F)ccc5F)c4)nn4ccccc34)n2)c1 [Example 48, N-[3-(3-{2-[(3-Cyanophenyl)amino]-4-pyrimidinyl}pyrazolo[1,5-a]pyridin-2-yl)phenyl]-2,5-difluorobenzamide]",+++ (A) (at least one pIC50 measurement of greater than 7 against either ErbB2 or EGFR),
100 to 1000 nM,"O=C(Nc1cccc(-c2nn3ccccc3c2-c2ccnc(Nc3cccc(N4CCCC4=O)c3)n2)c1)c1cc(F)ccc1F [Example 49, 2,5-Difluoro-N-{3-[3-(2-{[3-(2-oxo-1-pyrrolidinyl)phenyl]amino}-4-pyrimidinyl)pyrazolo[1,5-a]pyridin-2-yl]phenyl}benzamide]",+++ (A) (at least one pIC50 measurement of greater than 7 against either ErbB2 or EGFR),
100 to 1000 nM,"CCS(=O)(=O)Cc1ccc(Nc2nccc(-c3c(-c4cccc(NC(=O)c5cc(F)ccc5F)c4)nn4ccccc34)n2)cc1 [Example 51, N-(3-{3-[2-({4-[(ethylsulfonyl)methyl]phenyl}amino)-4-pyrimidinyl]pyrazolo[1,5-a]pyridin-2-yl}phenyl)-2,5-difluorobenzamide]",+++ (A) (at least one pIC50 measurement of greater than 7 against either ErbB2 or EGFR),
100 to 1000 nM,"Cc1ccc(Nc2nccc(-c3c(-c4cccc(NC(=O)c5cc(F)ccc5F)c4)nn4ccccc34)n2)cc1S(N)(=O)=O [Example 52, N-{3-[3-(2-{[3-(Aminosulfonyl)-4-methylphenyl]amino}-4-pyrimidinyl)pyrazolo[1,5-a]pyridin-2-yl]phenyl}-2,5-difluorobenzamide]",+++ (A) (at least one pIC50 measurement of greater than 7 against either ErbB2 or EGFR),
